Source: patent publication US7973011B2, “Blockade of gamma-secretase activity to promote myelination by oligodendrocytes” (The Board of Trustees of the Leland Stanford Junior …, priority 2006, dated 2011)
Entries after “also recorded” stand apart in the source; their conditions may differ. Like-named read-outs stand apart in the source and are kept apart here.

Tests used:
γ-secretase [1] = biological target: T1, γ-secretase (Homo sapiens, UniProt P49768); details: read-out: In cells; cited from earlier work
γ-secretase active site = γ-secretase active site (Homo sapiens, UniProt P49768); details: cited from earlier work
γ-secretase [2] = biological target: T1, γ-secretase; details: read-out: Cell-free; cited from earlier work
[3] = system: Notch1f/f OPCs on RGC reaggregates; test: Myelination by floxxed Notch1 OPCs (AdCre/AdEmpty) cocultured with RGC reaggregates; type: cell-based, mouse; details: 1 μM DAPT, six days of coculture, with or without glial Notch1
Description: FIG. 5. […] (A-C) Infection of OPCs from floxxed Notch1 mice (Notch1^f/f) with a recombinant adenovirus for expression of Cre recombinase (AdCre) results in rapid reduction of Notch1 protein. Notch1^f/f-OPCs, purified by immunopanning with anti-PDGFRα, were cultured for 2 days prior to infection for 24 hours with AdCre or a control virus (AdEmpty) at a multiplicity of infection of 10. The next day, cells were re-plated on RGC reaggregate cultures and on coverslips for analysis of Notch1 knockout, which was assessed by immunostaining (a,b) and Western blot analysis 24 hours later (c).
Conditional knockout cells and infection with AdCre. OPCs were purified from P9 Notch1 conditional knockout (gift of A. Rosenthal, Genentech) and presenilin double conditional knockout (gift of Jie Shen, Brigham and Women's hospital) mouse brains by a slight modification of the panning protocol for rat cells as described previously. The first panning dish was coated with mouse anti-mouse Thy1.2 (Serotec) rather than Ran-2. Mouse OPCs were plated on PDL-coated flasks in defined proliferation medium (DMEM supplemented with B27, insulin, 10 ng/ml PDGF, 1 ng/ml NT3, 10 ng/ml CNTF, and forskolin) for 2 days and then passaged onto PDL-coated tissue culture plates at a density of 1 million cells per plate. […]

[4] = system: oligodendrocytes in OPC-RGC reaggregate cocultures; test: OPC-RGC reaggregate coculture myelination (MBP/NG2 immunostaining); type: cell-based, rat
Description: Purification of RGCs. Retinal ganglion cells (RGCs) were purified to >99.5% homogeneity from two- to three-litters of 5-day-old (P5) rat retinae by immunopanning as previously described. Briefly, retinae were digested with papain at 37° C. Following gentle trituration, cells were resuspended in a panning buffer containing insulin (5 μg/ml) and then incubated at room temperature with rabbit anti-macrophage antibodies. Retinal cells were incubated at room temperature sequentially on three immunopanning dishes: two coated with anti-rabbit secondary antibodies (to negatively select macrophages) and the third with T11D7 anti-Thy1 mAb. RGCs were released from the final panning dish with trypsin (Sigma).
To produce reaggregates, RGCs were plated at high density (>1,000 cells/μl) in 400 μl RGC growth medium in wells an 8-well chamber-slide (Nunc) coated with a surface that is not strongly adherent for RGCs (Permanox). One- to three-hours after plating, RGCs were resuspended gently to promote interaction and reaggregation, and this was repeated the following day. Following two days of culture at high density, reaggregates were collected and allowed to settle to separate them from dead RGCs, non-aggregated cells, and small reaggregates (<10 cells). […]

PS-2 = PS-2 (Homo sapiens, UniProt P49810); details: cited from earlier work
PS-1 = PS-1 (Homo sapiens, UniProt P49768); details: cited from earlier work
[5] = system: dorsal root ganglion (DRG) neurons and oligodendrocytes; test: Myelination of dorsal root ganglion neurons by oligodendrocytes; type: cell-based
gamma-secretase = gamma-secretase (Homo sapiens, UniProt P49768); details: recombinant APP C100 substrate; cited from earlier work

Molecule	IC50 (γ-secretase [1]) [nM]	Displacement (γ-secretase active site)	IC50 (γ-secretase [2]) [nM]	other results
(Z-LL)2-ketone	> 100000	YES	30000	
C[C@@H](NC(=O)Cc1cc(F)cc(F)c1)C(=O)N[C@H]1N=C(c2ccccc2)c2ccccc2N(C)C1=O [Compound E]	0.3	YES	3	
C[C@H](NC(=O)Cc1cc(F)cc(F)c1)C(=O)N[C@H](C(=O)OC(C)(C)C)c1ccccc1 [DAPT]	20	YES	10	myelination (proportion of cells that myelinate) [3]: enhances myelination either in the presence (AdEmpty) or absence (AdCre) of glial Notch1; proportion of MBP+ oligodendrocytes that formed myelin segments ([4]; 1 μM DAPT, six-day cocultures): significantly increased; also recorded: the majority of oligodendrocytes myelinate; proportion of NG2+ OPCs or MBP+ oligodendrocytes ([4]; cocultures with DAPT): did not consistently alter; competition for the γ-secretase active site in a displacement assay (γ-secretase active site): can compete moderately; inhibition of PS-2 (PS-2): inhibits; inhibition of PS-1 (PS-1): inhibits; myelination of DRG neurons by oligodendrocytes [5]: profoundly enhanced myelination
Boc-D-Val-Gly-Aib-D-Val-D-Val-D-He-Aib-D-Thr(OBn)-D-Val-Aib-OMe [D-Helical peptide 294]	3000		100	
COC(=O)[C@@H](NC(=O)[C@H](CC(C)C)NC(=O)N(Cc1ccccc1)C[C@@H](O)[C@H](Cc1ccccc1)NC(=O)OC(C)(C)C)C(C)C [III-31-C]	200	YES	10	
CCC(C)C(NC(=O)C(CCCCNC(=O)OC(C)(C)C)NC(=O)OC(C)(C)C)C(=O)NC(CC(C)C)C1CO1 (stereo not drawn) [Epoxide]	20000		20000	
CSc1ccc(/C=C2/C(C)=C(CC(=O)O)c3cc(F)ccc32)cc1 [Sulindac sulfide]				inhibition of gamma(42)-secretase activity (gamma-secretase): preferentially inhibits
